Source: article PMC8828953, “In vitro Bioaccessibility and Intestinal Absorption of Selected Bioactive Compounds in Terminalia ferdinandiana” (Frontiers in Nutrition, 2022)
Several values for one entry are separate records, joined by “and”; a condition that tells them apart may be missing. Identical values can stand only once. Entries after “also recorded” stand apart in the source; their conditions may differ. Like-named read-outs stand apart in the source and are kept apart here. Marks after values point to notes of the source that are not given here.

How the values were obtained:
[1] = parameters: method as in PMID 23374081; conditions: blended fruit juice containing orange, pineapple, and kiwi; cited from earlier work
[2] = system: Caco-2-HT29-MTX-E12 coculture cell monolayers; experiment: Intestinal absorption assay (Papp, apical to basolateral) across Caco-2-HT29-MTX-E12 coculture on Transwell; type: in vitro ADME, human; conditions: for In vitro permeability (in words): comparison among AA, EA, OA, Ca^2+; for Apparent permeability (Papp): 10:1 dilution, applied 2 h
Protocol: (§1) Caco-2 and HT-29-MTX-E12 cells were seeded on Costar Transwell® plate inserts in a ratio of 9:1 and at a density of 1,09,000 cells/cm^2 and 12,120 cells/cm^2, respectively. Cells were cultured in growth media at 37°C and 5% CO2 for 21 days to facilitate cell differentiation and formation of an intact monolayer. During the 21-day differentiation period, growth media was removed and replaced with fresh media every 2–3 days. Cell differentiation of an intact monolayer was monitored by measuring the transepithelial electrical resistance (TEER) of the cell monolayer in an apical–basolateral direction. TEER was measured using the Millicell-ERS Voltohmmeter from Millipore (Burlington, MA, USA). TEER is a measurement of resistance and is a sensitive and convenient method to assess and the integrity of the cell monolayer. The values obtained are determined by cellular resistance (between apical and basolateral membrane) and the paracellular resistance (tight junctions). TEER values above 300 Ω.cm^2 are indicative of differentiated Caco-2-HT29-MTX-E12 cells and an intact monolayer ([17]).
(§2) In vitro absorption was performed by following the procedure described by Osborne and colleagues ([18]). On the day of the intestinal absorption assay, TEER was measured and growth media was replaced with HBSS in the apical and basolateral chambers for 2 h to enhance uptake of the applied digesta. For the absorption study, intestinal digesta samples (I30, I60, and I120) were diluted 10:1 with HBSS. […] In the apical chamber, 200 μL diluted intestinal digesta (I30, I60, and I120) were applied for 120 min. HBSS (600 μL) was added in the basolateral chamber. After 2 h, all apical and basolateral samples were collected and stored at−80°C. HBSS was replaced with growth media in all chambers with TEER values measured again immediately after the assay. TEER was also recorded 24 and 48 h after the assay. Intestinal absorption studies were performed in duplicate. The rate of EA, AA, OA, and Ca^2+ movement across the transwell® membrane was determined by calculating the apparent permeability coefficient (Papp) in cm/s as follows ([19]):
(§3) ΔQ/Δt is steady-state appearance rate of compound in receiver (basolateral) compartment (μmol/s).
(§4) A is the surface area of the filter (i.e., 0.33 cm^2).
(§5) C0 is the initial concentration in the donor (apical) compartment (μM).
(§6) Intestinal absorption of AA, EA, OA, and Ca^2+ from digested T. ferdinandiana powder was measured using Caco-2-HT29-MTX-E12 coculture cell monolayers. Intestinal digesta samples that were collected at different time points (I30, I60, and I120) throughout the in vitro digestion were applied to the coculture transwell model for 120 min before apical and basolateral samples were collected. The amount of AA, EA, OA, and Ca^2+ was measured in the digesta initially applied to the apical chamber of the transwell model, and in samples collected from the basolateral chamber. Apparent permeability (Papp) was calculated with statistical significance observed (p ≤ 0.05) in Papp values obtained from the applied I30, I60, and I120 digesta samples (Figure 4 and Table 2).

[3] = as above; type: in vitro ADME, human; conditions: human, 10:1 dilution, applied 2 h, read-out: Apparent permeability (Papp)
Protocol: as §1, §2, §3, §4, §5, §6

[4] = INFOGEST static in vitro gastrointestinal digestion, bioaccessibility from T. ferdinandiana freeze-dried powder; type: in vitro ADME
Protocol: Freeze-dried T. ferdinandiana powder (0.5 g) was mixed with 20 mL milli-Q water, vortexed, and used as the initial starting material for in vitro gastrointestinal digestion based on the INFOGEST model detailed in Section INFOGEST Gastrointestinal in vitro Digestion ([14]). Digestions were performed in duplicate with samples collected at various time points throughout the digestion process. Gastric digesta samples were collected at t = 0 (G0) and t = 60 (G60) min into the gastric phase, and intestinal digesta were collected at t = 30 (I30), t = 60 (I60), and t = 120 (I120) min into the intestinal digestion phase.
A harmonized in vitro gastrointestinal digestion method developed in the COST action INFOGEST network was applied ([14]). Oral phase was not included in this experiment as T. ferdinandiana fruit is currently marketed as freeze-dried powder that would not undergo a substantial oral phase or may be incorporated into a nutraceutical product in pill, capsule, or beverage form. The digestive fluids (simulated salivary fluid (SSF), simulated gastric fluid (SGF), and simulated intestinal fluid (SIF)) were prepared according to the INFOGEST method ([14]). The activity of all enzymes was also measured according to the protocols described in the INFOGEST method ([14]) to ensure standardized application. […] Porcine pancreatin was used at 16 units/mL trypsin activity. […] Figure 1 provides an overview of the digestion protocols and conditions employed in the study. At the end of each digestion steps, samples were collected and snap-frozen (−80°C) to stop the digestion. Pefabloc at a concentration of 0.1 M was recommended to stop intestinal digestion; however, considering the cytotoxic nature of Pefabloc at a concentration ≥ 0.25 mM, Pefabloc was not applied to avoid future cell toxicity.
The samples were centrifuged and filtered through 0.22 μm syringe filters prior to analysis. An Acquity UHPLC system (Waters Corp., Milford, MA, USA), equipped with a Waters Acquity UHPLC photodiode array (PDA) detection system, was used to carry out the analysis. Empower™ software (Waters Corp., USA) was used to process and quantify peaks after recording the signals. A Waters Acquity HSS T3 analytical column (100 mm × 2.1 mm, 1.8 μm particle size) (Waters Corp., USA), with an isocratic mobile phase of 0.1% aqueous (v/v) formic acid at a flow rate of 250 μL/min, was used with an injection volume of 2 μL. The absorbance was measured at room temperature at 245 nm.
T. ferdinandiana digesta and intestinal absorption samples were analyzed for EA. All samples were centrifuged and filtered through 0.22 μm PTFE membrane filters (Millipore, CA, USA) before injection into the chromatographic system. Samples were analyzed on a Waters Acquity UHPLC system (Waters Corp., Milford, MA, USA) equipped with PDA detector. A Waters BEH Shield RP18 Column 130 °A, 1.7 μm (100 mm X 2.1 mm) from Waters Corporation (Milford, Massachusetts, USA) was used. Column temperature was maintained at 40°C, the injection volume was 2 μL, PDA spectrum was scanned from 200 to 400 nm with a rate of 2.5 Hz, and detection was carried out at 254 nm. […] Formic acid 0.1% was used for mobile phase A (Milli-Q water) and phase B (acetonitrile) at a flow rate of 0.4 mL/min.
T. ferdinandiana digesta and intestinal absorption samples were cleaned up with a SPE step ([20]) for OA analysis. Mixed reversed phase-[…] anion exchange sorbent Strata® SAX (55 μm, 70 Å, 500 mg/3 mL) was purchased from Phenomenex (Torrance, CA, USA) and used in this study. The SPE process was maintained through an Analytichem VAC ELUT SPS 24 Port Vacuum Manifold from Agilent Varian (Santa Clara, CA, USA). The SPE columns were sequentially conditioned with 3 mL of methanol and 3 mL of milli-Q water. Digesta and intestinal absorption samples at a volume of 1 mL dripped through the cartridges by gravity (with a flow rate of about 1 mL/min). The cartridges were washed with 3 mL of water and 3 mL of methanol.

HepG2 cells = system: HepG2 cells; parameters: method as in PMID 19101929; conditions: cited from earlier work
Caco-2 cell barrier = system: Caco-2 cell barrier; parameters: method as in PMID 27738446; conditions: reported previously; cited from earlier work
[5] = Gastric t = 0 (G0), released from T. ferdinandiana fruit matrix
[6] = Intestinal t = 30 min (I30), pancreatin and bile
[7] = Gastric t = 60 min (G60), pepsin
[8] = intestinal phase, time point not stated

SMILES | Recovery after gastric digestion [1] [%] | In vitro permeability (in words) [2] | Papp at 120 min ([3]; I30 digesta) [×10⁻⁶ cm/s] | Papp at 120 min ([3]; I60 digesta) [×10⁻⁶ cm/s] | Papp at 120 min ([3]; I120 digesta) [×10⁻⁶ cm/s] | Bioaccessibility [4, 5] | Bioaccessibility [4, 6] | Bioaccessibility ([4]; Intestinal t = 60 min (I60)) | Bioaccessibility ([4]; Intestinal t = 120 min (I120)) | Apparent permeability (Papp) ([2]; I30 digesta) | Apparent permeability (Papp) ([2]; I60 digesta) | Apparent permeability (Papp) ([2]; I120 digesta) | Bioaccessibility ([4]; Gastric t = 0 (G0), released from T. ferdinandiana fruit matrix, listed as calcium) [%] | Bioaccessibility [4, 7] | Bioaccessibility [4, 8] [%] | Time at which absorption was detected after application (HepG2 cells) [min] | Time of peak absorption (HepG2 cells) [h] | Papp (Caco-2 cell barrier)
O=C1O[C@H]([C@@H](O)CO)C(O)=C1O [AA, ascorbic acid] | 83 | low apparent permeability; also recorded: in vitro permeability was low | 41 ± 5 | 19 ± 0.4 | 10 ± 0.1 | 93% and 93 ± 2^a % | 93% and 93 ± 7^a % | 100% and 100 ± 1^a % | 79% and 79 ± 5^a % | – | – | – | – | – | – | – | – | –
[Ca+2] [Ca^2+, calcium] | – | – | – | – | – | 67 ± 4^c % | 90% and 90^a ± 0.0% | 90% and 90 ± 1^c % | 79% and 79 ± 2^a % | 60 ± 6^a x 10^−6 cm/s | 56 ± 7^a x 10^−6 cm/s | 50 ± 9^a x 10^−6 cm/s | 67 | 69 ± 1^a % | 90 | – | – | –
O=c1oc2c(O)c(O)cc3c(=O)oc4c(O)c(O)cc1c4c23 [EA, ellagic acid] | – | highest permeability | 796 ± 7 | 394 ± 4 | 201 ± 2 | 33% and 33 ± 1^b % | 49% and 49 ± 3^b % | 49% and 49 ± 1^b % | 48% and 48 ± 1^b % | – | – | – | – | 42 ± 1^b % | 48 | 15 | 4 | 0.347 ± 0.018 /10^−6 cm/s
O=C(O)C(=O)O [OA, oxalic acid] | – | – | 258 ± 5 | 231 ± 1 | 150 ± 7 | 72% and 72 ± 7^c % | 98% and 99^a ± 0.0% | 98 ± 3^a % | 89% and 89 ± 1^a % | – | – | – | – | 85 ± 2^a % | 98 | – | – | –
